According to patent US6011015A, “Angiotensin II for improving fertilization” (Queen Mary & Westfield College, priority 1994, dated 2000):
Counter-ions that a name gives are not always drawn.

Legend:
Assay type in all cases: cell-based
Human sperm [1] = assay: Percentage motility of human sperm, counted from video recordings in a Makler chamber
Protocol: Human sperm sample were obtained from 12 volunteers and patients attending the Newham Hospital assisted fertility clinic. Samples were suspended in modified minimum essential medium with Earle's salts (MEM) and glutamine and viewed in a Makler chamber using an Olympus inverted microscope fitted with an Olympus ARTF-2 video camera. Fields were recorded on video tape and percentage motility evaluated at 1 min and 5 min. After mixing with MEM alone (unstimulated controls) or with MEM containing 1 nmole/litre angiotensin II amide.
In practice, rigid use of this definition was rarely necessary as sperm were either completely immotile or progressed freely.
A series of six sperm samples, obtained from the same source as Example 1, were mixed either with unmodified MEM, or MEM containing DuP-753 (1 nmole/l).
Percentage motility was estimated in the same way as in Example 1.
(§1) Effect of Angiotensin II on Sperm Velocity Sperm samples were obtained from the same source as Example 1. One series of samples was kept as controls. To a second series Angiotensin II amide (10 nmole/l) was added. A third series was treated with monoclonal antibody to the AT1, receptor before angiotensin was added.
Sperm samples were obtained from the same source as Example 1. One series of samples was kept as controls. A second series was exposed to angiotensin II (1 μmole/l) for five minutes. A third series was exposed to angiotensin II (1 μmole/l) for 5 minutes and then DuP-753 (1 μmole/l) was added.
The percentage of motile sperm was measured using the same method as was used in Example 1.

Human sperm [2] = assay: Forward progressive sperm velocity, timed manually across the Makler chamber grid; conditions: Angiotensin II amide (10 nmole/l); FIG. 3(a)
Protocol: as §1
Velocity was measured by timing forwardly progressive sperm traversing the grid on the Makler Chamber and timing them manually.

Human sperm [3] = assay: Sperm motility by computer system (VCL and ALH); conditions: angiotensin II amide (1 nmole/l) versus unstimulated controls, over 30 minutes
Protocol: Sperm samples were obtained from the same source as Example 1. One series of samples was kept as controls. TO a second series angiotensin II amide (1 nmole/l) was added.
Sperm motility was assayed by using a computer system which measures different aspects of sperm motility, namely curvilinear velocity (VCL) and amplitude of lateral head displacement (ALH).

Question: Which results are given for `CCCCc1nc(Cl)c(CO)n1Cc1ccc(-c2ccccc2-c2nn[nH]n2)cc1` [DuP-753, 2-n-butyl-4-chloro-5-hydroxymethyl-1-[(2'-(1H-tetrazol-5-yl)biphenyl-4-yl)methyl] imidazole, potassium salt, reference compound]?
Answer: percentage motility relative to the untreated controls (Human sperm [1]; MEM containing DuP-753 (1 nmole/l), six sperm samples, FIG. 2): significantly decreased; effect on the angiotensin II enhancement of the percentage of motile sperm (Human sperm [1]; angiotensin II (1 μmole/l) for 5 minutes, then DuP-753 (1 μmole/l) added, FIG. 4): generally reduced

Question: “angiotensin II (DRVYIHPF; Angiotensin-2; UniProt P01019 25-32, looked up) [octapeptide hormone of the renin-angiotensin system]” was tested. Which “percentage motility after 5 minutes compared with percentage motility after 1 minute” value (Human sperm [1]; MEM containing 1 nmole/litre angiotensin II amide, 12 human sperm samples, FIG. 1(b)) did it give?
Answer: significantly different

Question: And the “percentage of sperm which were motile after 5 minutes compared with the controls” value (Human sperm [1]; angiotensin II (1 μmole/l) for five minutes, in most samples, FIG. 4)?
Answer: enhanced

Question: What about the “forward progressive velocity compared with the untreated controls” value (Human sperm [2]) of the same molecule?
Answer: significantly stimulated

Question: What does the source list for angiotensin II amide?
Answer: curvilinear velocity (VCL) (Human sperm [3]; FIGS. 6 and 8): stimulates; amplitude of lateral head displacement (ALH) (Human sperm [3]; FIGS. 7 and 8): stimulates
